Laboratory results published in patent US12618044B2, “Specification of functional cranial placode derivatives from human pluripotent stem cells” (MEMORIAL SLOAN-KETTERING CANCER CENTER, priority 2013, dated 2026).
Where a name gives a salt, the structure may show the parent alone.

What was measured:
Type in all cases: cell-based, human
pre-placodal cells = test: Pituitary placode specification under modified PIP
Source text: Further treatment with agonists for SHH signaling (FIG. 39A) at the pre-placode stage (day 7-11) induced expression of the oral ectoderm marker SIX6 and PITX1 (FIG. 38B), master regulators of pituitary gland development (Tremblay et al., 1998).
Endocrine cells of the anterior pituitary gland are derived from three main precursors lineages (Scully and Rosenfeld, 2002). […] Induction of PIT1 and GATA2 precursor lineages was less efficient but was increased following treatment with the γ-secretase inhibitor DAPT (FIGS. 38F, 38G).
Differentiation of hormone producing cells: During placode induction protocol, Sonic Hedgehog (C25II-R&D 100 ng/ml) and Purmorphamine (Stemgent, 1 μM) were added between days 7-11 of PIP to promote differentiation towards pituitary placode anlage. The cells were maintained without passaging in N2 medium and treated with additional factors such as DAPT (Tocris, 10 μM), between day 13 and day 17 of differentiation to induce PIT1+ and GATA2+ precursor cells (see FIG. 39A).

SIX1::GFP cells = test: PIP-E6 pituitary induction and hormone release
Protocol: Induction of anterior pituitary gland cells: Pituitary placode cells were induced by culturing SIX1::GFP cells according to the PIP-E6 protocol, wherein pituitary factors SHH, FGF8, FGF10 and/or hypothalamus CM were supplemented in the culture media from days 6-15.
Induction of anterior pituitary gland cells: SIX1::GFP hPSCs were cultured according to a modified PIP-E6 protocol, wherein pituitary factors such as FGF8, FGF10 or SHH, etc., were included in the culture media from days 6-14. Cells were sorted based on expression of SIX1::GFP, and were replated at a concentration of 10,000 cells/cm^2 on PO/L/F, and were incubated with small molecule/growth factors for 2 weeks. (FIG. 68). […] (FIG. 69).

hESC = test: Neural induction of hESC by dual SMAD inhibition (PAX6 expression); details: 10 uM to 30 nM, each added to 10 uM of SB431542
Protocol: In one embodiment, the present invention contemplates a method establishing an even cell distribution for inducing homogenous neural differentiation of hESCs. To this end, undifferentiated hESC were dissociated into single cells and re-plated onto Matrigel coated dishes in conditioned medium supplement with ROCK inhibitor, Y-27632 (Wananabe et al., 2007). After 72 hours, cells were switched from hESC conditions to knock-out serum replacement medium (KSR) containing either Noggin, SB4315242, or both factors and allowed to differentiate for a total of 11 days (FIG. 1A). […] Neural induction was monitored by expression of PAX6, an early marker of neuroectodermal differentiation (Callaerts, et al., Annu Rev Neurosci 20:483 (1997).
hESC cultures were disaggregated using accutase for 20 minutes, washed using hESC media and pre-plated on gelatin for 1 hour at 37° C. in the presence of ROCK inhibitor to remove MEFs. The nonadherent hESC were washed and plated on matrigel at a density of 10,000-25,000 cells/cm^2 on matrigel (BD) coated dishes in MEF conditioned hESC media (CM) spiked with 10 ng/mL of FGF-2 and ROCK-inhibitor. […] The ROCK inhibitor was withdrawn, and hESC were allowed to expand in CM for 3 days or until they were nearly confluent. […]

[1] = tested on: NSB derived neural precursor cells; test: Ventral patterning of NSB derived neural precursor cells by FP conditioned media; details: with CM from hESC derived FP
Source text: The FP has important functional roles during development in neural patterning and axonal path finding (Jessell, 2000). To assess the functional properties of hESCs derived FP conditioned media was isolated at days 9 and 11 and tested for expression of Netrin-1 in the medium using ELISA (FIG. 17A). Under normal NSB conditions, Netrin-1 is detectable at Day 9 and decreases at Day 11 while in the NSB+SHH condition, there is a 3.5 fold increase in Netrin-1 levels, increasing at Day 11 (FIG. 17B). SHH is a critical patterning factor secreted by FP cells and specifying ventral cell types in a dose-dependent manner. To test if hESCs derived FP secretes factors that can specify ventral precursor domains, conditioned media (CM) was isolated at Days 9 and 11 of the differentiation. At Day 6, exogenous SHH was removed and cultures were washed to eliminate any exogenously added SHH from the medium. Naïve neural progenitor cells were isolated at Day 11 of the control (NSB) protocol and cultured with either NSB CM or FP CM. After Day 5 of culture in the presence of CM, the inventors probed for the expression of ventral precursor markers and expression of the SHH responsive gene GLI2. […] Increase in the expression of ventral markers was confirmed at the level of protein (FIG. 17D).

SMILES: C[C@H](NC(=O)Cc1cc(F)cc(F)c1)C(=O)N[C@H](C(=O)OC(C)(C)C)c1ccccc1 [DAPT]
- Induction of PIT1 and GATA2 precursor lineages (pre-placodal cells): increased
- proportion of each of the three pituitary precursor lineages (SIX1::GFP cells): modulated

SMILES: c1cc(-c2cnn3cc(-c4ccc(OCCN5CCCCC5)cc4)cnc23)ccn1 [Dorsomorphin, 6-[4-[2-(1-Piperidinyl)ethoxy]phenyl]-3-(4-pyridinyl)-pyrazolo[1,5-a]pyrimidine dihydrochloride]
- efficiency based on the percentage of PAX6+ cells, versus Noggin/SB431542 (hESC): not as high

SMILES: CC1=C2C[C@H]3[C@@H](CC=C4C[C@@H](O)CC[C@@]43C)[C@@H]2CC[C@]12O[C@@H]1C[C@H](C)CN[C@H]1[C@H]2C [cyclopamine]
- NKX2.1, NKX6.1, and GLI2 expression [1]: significantly reduced
